Test results as given in DBAASP.
≈ marks a conversion by molar mass, not a printed value.

Assays:
Experiment in all cases: ≥ marks a high value that may be exact or a test limit, other limits are often not marked, values filed in µg/mL are converted to µM
[1] = tested on: Escherichia coli UB1005
[2] = tested on: Pseudomonas aeruginosa ATCC 27853
[3] = tested on: Lacticaseibacillus rhamnosus 7469
[4] = tested on: Lacticaseibacillus rhamnosus 1.0386
[5] = tested on: Lacticaseibacillus rhamnosus 1.0385
[6] = tested on: Lacticaseibacillus rhamnosus 1.0925
[7] = tested on: Staphylococcus aureus ATCC 43300
[8] = tested on: Staphylococcus epidermidis ATCC 12228
[9] = tested on: Lactiplantibacillus plantarum 8014
[10] = tested on: Staphylococcus aureus ATCC 29213
[11] = tested on: Lacticaseibacillus rhamnosus 1.0911
[12] = tested on: Escherichia coli ATCC 25922
[13] = tested on: Staphylococcus aureus ATCC 12600
[14] = tested on: Streptococcus mutans ATCC 25175
[15] = tested on: Pseudomonas aeruginosa ATCC 9027
[16] = tested on: Escherichia coli ATCC 2592
[17] = tested on: Staphylococcus aureus ATCC 6538
[18] = tested on: Micrococcus luteus ATCC 9341
[19] = tested on: Staphylococcus aureus 1550
[20] = tested on: Escherichia coli NBRC 3972
[21] = tested on: Micrococcus luteus NBRC 3333
[22] = tested on: Staphylococcus epidermidis NBRC 12993
[23] = tested on: Pseudomonas putida NBRC 100650
[24] = tested on: Candida viswanathii NBRC 10321
[25] = tested on: Aspergillus oryzae NBRC 100959
[26] = tested on: Salmonella typhimurium ATCC 7731
[27] = tested on: Salmonella enterica subsp. enterica serovar Typhimurium ATCC 14028
[28] = tested on: Bacillus subtilis CMCC 63501

## NC(=O)[C@H](CCCN=C(N)N)NC(=O)[C@H](CCCN=C(N)N)NC(=O)[C@H](Cc1c[nH]c2ccccc12)NC(=O)[C@H](Cc1ccc(O)cc1)NC(=O)[C@H](Cc1c[nH]c2ccccc12)NC(=O)[C@H](Cc1c[nH]c2ccccc12)NC(=O)[C@H](Cc1c[nH]c2ccccc12)NC(=O)[C@H](Cc1ccc(O)cc1)NC(=O)[C@H](Cc1c[nH]c2ccccc12)NC(=O)[C@H](CCCN=C(N)N)NC(=O)[C@@H](N)CCCN=C(N)N [RRWYWWWYWRR]
[1]
  MIC: ≥ 32 µM
[2]
  MIC: 8 µM (≈ 15.2 µg/mL)
[3]
  MIC: ≥ 64 µM
[4]
  MIC: 16 µM (≈ 30.4 µg/mL)
[5]
  MIC: 16 µM (≈ 30.4 µg/mL)
[6]
  MIC: ≥ 64 µM
[7]
  MIC: 8 µM (≈ 15.2 µg/mL)
[8]
  MIC: 8 µM (≈ 15.2 µg/mL)
[9]
  MIC: 4 µM (≈ 7.6 µg/mL)
[10]
  MIC: 8 µM (≈ 15.2 µg/mL)
[11]
  MIC: ≥ 64 µM
[12]
  MIC: 32 µM (≈ 60.8 µg/mL)

## CC[C@H](C)[C@H](NC(=O)[C@H](C)NC(=O)CNC(=O)[C@H](Cc1ccccc1)NC(=O)[C@H](CC(C)C)NC(=O)CN)C(=O)N[C@@H](C)C(=O)NCC(=O)N[C@@H](Cc1ccccc1)C(=O)N[C@H](C(=O)N[C@@H](CCCCN)C(=O)N[C@@H](CCCCN)C(=O)NCC(=O)N[C@@H](Cc1c[nH]c2ccccc12)C(=O)N1CCC[C@H]1C(=O)NCC(=O)N[C@@H](CC(C)C)C(=O)N[C@H](C(=O)N[C@@H](CCCCN)C(=O)NCC(N)=O)C(C)C)[C@@H](C)CC [GLFGAIAGFIKKGWPGLVKG]
[2]
  MIC: 15.5 µM (≈ 31.2 µg/mL)
[13]
  MIC: 3.9 µM (≈ 7.86 µg/mL)
[14]
  MIC: 1.9 µM (≈ 3.83 µg/mL)
[12]
  MIC: 7.8 µM (≈ 15.7 µg/mL)

## CC(C)[C@H](NC(=O)[C@H](CCCCN)NC(=O)[C@H](Cc1ccccc1)NC(=O)[C@@H](NC(=O)[C@@H](NC(=O)[C@H](CCCCN)NC(=O)[C@@H](N)CCCCN)C(C)C)C(C)C)C(=O)N[C@@H](CCCCN)C(=O)N[C@@H](Cc1ccccc1)C(=O)N[C@@H](CCCCN)C(=O)O [KKVVFKVKFK]
[15]
  MIC: 4 µM (≈ 5 µg/mL)
[16]
  MIC: 8 µM (≈ 10 µg/mL)
[17]
  MIC: 2.49 µM (≈ 3.12 µg/mL)
[18]
  MIC: 3.2 µM (≈ 4 µg/mL)
[19]
  MIC: 17.6 µM (≈ 22 µg/mL)

## CC[C@H](C)[C@H](NC(=O)[C@H](CCSC)NC(=O)[C@H](CCCN=C(N)N)NC(=O)[C@H](CCCN=C(N)N)NC(=O)[C@H](CC(C)C)NC(=O)[C@H](Cc1ccc(O)cc1)NC(=O)[C@H](CCCN=C(N)N)NC(=O)[C@H](CCCCN)NC(=O)[C@@H](NC(=O)[C@H](CCCCN)NC(=O)[C@@H](N)CCCN=C(N)N)[C@@H](C)CC)C(=O)O [RKIKRYLRRMI]
[20]
  MIC: 4.08 µM (≈ 6.25 µg/mL)
[21]
  MIC: 2.04 µM (≈ 3.13 µg/mL)
[22]
  MIC: 4.08 µM (≈ 6.25 µg/mL)
[23]
  MIC: 8.15 µM (≈ 12.5 µg/mL)
[24]
  MIC: 8.15 µM (≈ 12.5 µg/mL)
[25]
  MIC: 16.3 µM (≈ 25 µg/mL)

## CC[C@H](C)[C@H](NC(=O)[C@H](C)NC(=O)[C@H](CCCCN)NC(=O)[C@H](Cc1ccc(O)cc1)NC(=O)[C@@H](N)CC(C)C)C(=O)N[C@@H](CCCN=C(N)N)C(=O)N[C@@H](CCCN=C(N)N)C(=O)N[C@@H](CCCCN)C(N)=O [LYKAIRRK]
[26]
  MIC: ≥ 128 µM
[1]
  MIC: ≥ 128 µM
[2]
  MIC: > 128 µM
[27]
  MIC: > 128 µM
[8]
  MIC: > 128 µM
[10]
  MIC: > 128 µM
[28]
  MIC: ≥ 128 µM
[12]
  MIC: > 128 µM
